Assay results reported in PMC3804415 (Bioorganic & medicinal chemistry, 2013).

Target: T1, human QR2 (Homo sapiens, UniProt P16083)
T1 sequence (P16083 1-231): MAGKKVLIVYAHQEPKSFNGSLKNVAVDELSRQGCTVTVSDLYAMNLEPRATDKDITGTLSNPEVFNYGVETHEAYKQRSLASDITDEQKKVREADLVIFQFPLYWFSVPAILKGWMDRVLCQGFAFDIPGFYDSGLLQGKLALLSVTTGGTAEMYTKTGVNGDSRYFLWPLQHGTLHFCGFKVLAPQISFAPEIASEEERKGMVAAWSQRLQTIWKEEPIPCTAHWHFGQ
Experiment: Steady-state kinetic assay of QR2 inhibition
Format: biochemical
Conditions: for inhibition at 100 µM: read-out: average percent inhibition of QR2; for average percent inhibition of QR2: at 100 μM inhibitor

SMILES | inhibition at 100 µM [%] | average percent inhibition of QR2
CC(C)Oc1cc(/C=C(\C#N)c2ccc(O)cc2)cc(OC(C)C)c1 [Analogue 4a, (Z)-3-(3,5-diisopropoxyphenyl)-2-(4-hydroxyphenyl)acrylonitrile] | ≤ 20 | –
COc1ccc(/C(C#N)=C/c2cc(OC(C)C)cc(OC(C)C)c2)cc1 [Analogue 4c, (Z)-3-(3,5-diisopropoxyphenyl)-2-(4-methoxyphenyl)acrylonitrile] | ≤ 20 | –

Further lines, results first:

inhibition at 100 µM [%] | average percent inhibition of QR2 | SMILES
– | eliminates inhibition of QR2 | CN(C)c1ccc(NC(=O)c2ccc(O)cc2)cc1 [Analogue 8f, N-(4-(dimethylamino)phenyl)-4-hydroxybenzamide]
– | eliminates inhibition of QR2 | CN(C)c1ccc(C(=O)Nc2cc(O)cc(O)c2)cc1 [Analogue 8k, N-(3,5-dihydroxyphenyl)-4-(dimethylamino)benzamide]
– | no inhibition of QR2 | COc1cc(OC)cc(C(=O)Nc2ccc3ccccc3c2)c1 [Analogue 8p, 3,5-dimethoxy-N-(naphthalen-2-yl)benzamide]
